Where a name gives a salt, the structure may show the parent alone. Peptide text beside a SMILES is read from it.
Experiments:
[1] = test system: mouse fibrosarcoma Meth A cells; test: Antitumor activity, Meth A tumor-bearing mice, injection every 4 days 4 times; settings: for antitumor activity (in words): compared to the drug compound, per se; for Inhibition rate (%): tail vein every 4 days from day 7, tumor weight day 21
Protocol: Meth A tumor-bearing mice were prepared (7 mice per group) by subcutaneously transplanting 1×10^6 mouse fibrosarcoma Meth A cells into the right inguinal regions of BALB/c male mice (7-week old). On day 7, the drug complex of Example 9 dissolved in distilled water for injection was injected in the tail vein of the Meth A tumor-bearing mice every 4 days 4 times. On day 21 after the transplantation, tumor masses were excised and weighed to calculate the inhibition rate of tumor growth according to the following equation: inhibition rate of tumor growth (%)=[1−(average tumor weight of the group administered with the test sample/average tumor weight of control group)]×100.

[2] = test system: mouse fibrosarcoma Meth A cells; test: Antitumor activity, Meth A tumor-bearing mice, single administration; type: in vivo; settings: for Inhibition rate (%): Table 3; for antitumor activity (in words) / effective dose-range: single administration, compared to the drug compound, per se
Protocol: Meth A tumor-bearing mice (6 mice per group) were prepared according to a similar manner to that of Example 11 and the antitumor activity was compared to that obtained by single administration of the drug complexes of Examples 8 and 9 once on day 7. As a result, the degree of the antitumor activity was as follows: (Polysaccharide derivative)-Gly-Gly-Phe-Gly-NH—A′>(Polysaccharide derivative)-Gly-Gly-Gly-Phe-NH—A′>the drug compound, per se.
Meth A tumor-bearing mice (6 mice per group) were prepared according to a similar manner to that of Example 11, and the antitumor activity of the drug complex of Example 41 was examined in the cases of single administration in a similar manner to that of Example 12, and its antitumor activity was compared to that of the drug compound, per se. […]

[3] = test system: mouse fibrosarcoma Meth A cells; test: as above; type: in vivo
SC-6 human gastric tumor = test: Antitumor activity, SC-6 tumor-bearing nude mice; type: in vivo, mouse; settings: for Inhibition rate (%) / Numbers of died mice/mice used: single intravenous administration on day 27, nude mice
Protocol: (§1) SC-6 tumor-bearing nude mice (5 mice per group) were prepared by subcutaneously transplanting a piece of SC-6 human gastric tumor block into the right inguinal regions of nude mice (BALB/c-nu/nu, male).

Human lung cancer QG-90 = test: Antitumor activity, human lung cancer QG-90-bearing nude mice; type: in vivo, mouse; settings: for Inhibition rate (%) / Numbers of died mice/mice used: single intravenous administration on day 16, nude mice
Protocol: as §1
Human lung cancer QG-90-bearing nude mice (5 mice per group) were prepared according to a similar manner to that of Example 57.

[4] = Pharmacokinetics in Meth A tumor-bearing mice; type: in vivo, mouse; settings: single administration, 10 mg/kg calculated as the drug compound; FIG. 24
[5] = 5 mg/kg calculated based on the drug compound, single administration on day 7
[6] = Example 60, 20 mg/kg calculated based on the drug compound, single administration, 20 mg/kg
[7] = Example 60, 40 mg/kg calculated based on the drug compound, single administration
[8] = Example 60, 80 mg/kg calculated based on the drug compound, single administration
[9] = Example 60, 100 mg/kg calculated based on the drug compound, single administration
[10] = 2 mg/kg calculated based on the drug compound
[11] = 8 mg/kg calculated based on the drug compound
[12] = single intravenous administration, compared to the drug compound, per se
[13] = 1.75 mg/kg calculated based on the drug compound
[14] = 7 mg/kg calculated based on the drug compound

Compound: CC[C@@]1(O)C(=O)OCc2c1cc1n(c2=O)Cc2c-1nc1cc(F)c(C)c3c1c2[C@@H](NC(=O)CNC(=O)[C@H](Cc1ccccc1)NC(=O)CNC(=O)CN)CC3 [3′-N-(Gly-Gly-Phe-Gly)-NH—A (A—NH2=DX-8951) trifluoroacetic acid salt] (HELM PEPTIDE1{G.G.F.G.[CC[C@@]1(O)C(=O)OCc2c1cc1n(c2=O)Cc2c-1nc1cc(F)c(C)c3c1c2[C@@H](N[*:1])CC3]}$$$$V2.0)
- antitumor activity (in words) ([1]; every 4 days 4 times): not effective

Compound: CC[C@@]1(O)C(=O)OCc2c1cc1n(c2=O)Cc2c-1nc1cc(F)c(C)c3c1c2[C@@H](N)CC3 [DX-8951, (1S,9S)-1-amino-9-ethyl-5-fluoro-2,3-dihydro-9-hydroxy-4-methyl-1H,12H-benzo[de]pyrano[3′,4′:6,7]indolizino[1,2-b]quinoline-10,13(9H,15H)-dione, reference compound]
- Inhibition rate (%) ([2]; 20 mg/kg single administration on day 7, drug compound = DX-8951): 59%
- Inhibition rate (%) ([2]; 60 mg/kg single administration on day 7, drug compound = DX-8951): 77%

Compound: carboxymethyldextran polyalcohol-Gly-Gly-Gly-Phe-NH—A′ (A—NH2=DX-8951) [Example 8]
- Inhibition rate (%) [2, 5]: 76%
- Inhibition rate (%) ([2]; 10 mg/kg calculated based on the drug compound, single administration on day 7): 85%

Compound: carboxymethyldextran polyalcohol-Gly-Gly-Gly-Phe-NH—A′ (A—NH2=DX-8951) [Example 29]
- antitumor activity (in words) [2]: high
- effective dose-range [2]: broader
- Inhibition rate (%) ([3]; Example 60, 5 mg/kg calculated based on the drug compound, single administration): 79%
- Inhibition rate (%) ([3]; Example 60, 10 mg/kg calculated based on the drug compound, single administration): 89%
- Inhibition rate (%) [3, 6]: 99%
- Inhibition rate (%) ([3]; Example 60, 30 mg/kg calculated based on the drug compound, single administration): 99%

Compound: carboxymethyldextran polyalcohol-Gly-Gly-Gly-Phe-NH—A′ (A—NH2=DX-8951) [Example 46]
- antitumor activity (in words) [2]: high
- effective dose-range [2]: broader
- Inhibition rate (%) [3, 6]: 75%
- Inhibition rate (%) [3, 7]: 82%
- Inhibition rate (%) [3, 8]: 92%
- Inhibition rate (%) [3, 9]: 94%

Compound: carboxymethyldextran polyalcohol-Gly-Gly-Phe-Gly-DXR [Example 44]
- antitumor activity (in words) [2]: remarkably enhanced
- effective dose-range [2]: broader
- Inhibition rate (%) ([3]; Example 61, 5 mg/kg calculated based on the drug compound, single administration): 76%
- Inhibition rate (%) ([3]; Example 61, 10 mg/kg calculated based on the drug compound, single administration): 87%
- Inhibition rate (%) ([3]; Example 61, 20 mg/kg calculated based on the drug compound, single administration): 96%
- Inhibition rate (%) ([3]; Example 61, 40 mg/kg calculated based on the drug compound, single administration): 96%

Compound: carboxymethyldextran polyalcohol-Gly-Gly-Phe-Gly-NH—A′ (A—NH2=DW-8089) [Example 41]
- antitumor activity (in words) [2]: remarkably enhanced
- effective dose-range [2]: broader
- Inhibition rate (%) ([3]; Example 59, 3.125 mg/kg calculated based on the drug compound, single administration): 61%
- Inhibition rate (%) ([3]; Example 59, 6.25 mg/kg calculated based on the drug compound, single administration): 81%
- Inhibition rate (%) ([3]; Example 59, 12.5 mg/kg calculated based on the drug compound, single administration): 95%
- Inhibition rate (%) ([3]; Example 59, 25 mg/kg calculated based on the drug compound, single administration): 99%

Compound: carboxymethyldextran polyalcohol-Gly-Gly-Phe-Gly-NH—A′ (A—NH2=DX-8951) [Example 9]
- Inhibition rate (%) ([1]; dose 0.35 mg/kg × 4 calculated based on the drug compound): 41%
- Inhibition rate (%) ([1]; dose 0.7 mg/kg × 4 calculated based on the drug compound): 59%
- Inhibition rate (%) ([1]; dose 1.4 mg/kg × 4 calculated based on the drug compound): 94%
- toxicity (weight loss) ([1]; every 4 days 4 times): no toxicity
- antitumor activity (in words) ([1]; every 4 days 4 times): remarkably enhanced
- Inhibition rate (%) [2, 5]: 98%
- Inhibition rate (%) ([3]; Table 3, 2.5 mg/kg calculated based on the drug compound, single administration on day 7): 87%

Compound: carboxymethyldextran polyalcohol-Gly-Gly-Phe-Gly-NH—A′ (A—NH2=DX-8951) [Example 15]
- antitumor activity (in words) [2]: remarkably enhanced
- effective dose-range [2]: broader
- Inhibition rate (%) (SC-6 human gastric tumor; [10]): 71%
- Numbers of died mice/mice used (SC-6 human gastric tumor; [10]): 0/5
- Inhibition rate (%) (SC-6 human gastric tumor; [11]): 100%
- Numbers of died mice/mice used (SC-6 human gastric tumor; [11]): 0/5
- death due to toxicity (SC-6 human gastric tumor; single intravenous administration): no death
- antitumor activity (in words) (SC-6 human gastric tumor; [12]): higher
- Inhibition rate (%) (Human lung cancer QG-90; [13]): 97%
- Numbers of died mice/mice used (Human lung cancer QG-90; [13]): 0/5
- Inhibition rate (%) (Human lung cancer QG-90; [14]): 98%
- Numbers of died mice/mice used (Human lung cancer QG-90; [14]): 0/5
- antitumor activity (in words) (Human lung cancer QG-90; [12]): remarkably enhanced
- effective dose-range (Human lung cancer QG-90; [12]): broader
- distribution in tumor tissues [4]: high
- retention of blood level [4]: extremely long
- Inhibition rate (%) ([3]; Example 56, 1.25 mg/kg calculated based on the drug compound, single administration): 83%
- Inhibition rate (%) ([3]; Example 56, 2.5 mg/kg calculated based on the drug compound, single administration): 95%
- Inhibition rate (%) ([3]; Example 56, 5 mg/kg calculated based on the drug compound, single administration): 99%
- Inhibition rate (%) ([3]; Example 56, 10 mg/kg calculated based on the drug compound, single administration): 100%

Compound: α-methylcarboxymethyldextran polyalcohol-Gly-Gly-Gly-Phe-NH—A′ (A—NH2=DX-8951) [Example 47]
- antitumor activity (in words) [2]: high
- effective dose-range [2]: broader
- Inhibition rate (%) ([3]; Example 60, 20 mg/kg calculated based on the drug compound, single administration): 75%
- Inhibition rate (%) [3, 7]: 97%
- Inhibition rate (%) [3, 8]: 94%
- Inhibition rate (%) [3, 9]: 96%

Reference: patent US6838450B2, “Drug complex” (Daiichi Pharmaceutical Co., LTD, priority 1996, dated 2005)
